US20240343720A1, “AAK1 INHIBITOR AND USE THEREOF” (Xizang Haisco Pharmaceutical Co., Ltd., priority 2021, published 2024)

How the values were obtained:
AAK1 = AAK1 (Homo sapiens (Human), UniProt Q2M2I8); assay: In vitro AAK1 enzyme activity assay (ADP-Glo); assay type: biochemical; details: read-out: Inhibitory activity against AAK1 IC50
Procedure: Compound stock solution (concentration: 10 mM, dissolved in DMSO) was diluted with DMSO to 0.2 mM and then diluted with DMSO in 5-fold gradient to obtain compound solutions with 10 concentrations. Subsequently, the compound solutions with different concentrations were diluted 50-fold in 1×kinase reaction buffer (containing 40 mM Tris, 20 mM MgCl2, 0.1% BSA and 0.5 mM DTT) for later use. AAK1 (Signalchem, Cat #A01-11G-10) was diluted with 1×kinase reaction buffer to 2-fold the final concentration (final concentrations: 30 nM and 28 nM). AAK1 was added to a 384-well white plate at 2 μL/well, and the compounds were then added at 1 μL/well. The plate was sealed with a plate-sealing film, centrifuged at 1000 rpm for 30 seconds and then placed at room temperature for 10 minutes. A mixed solution of ATP (Promega, Cat #V914B) and substrate Micro2 (GenScript, Cat #PE0890) was formulated at 4-fold the final concentration (for AAK1, the corresponding final concentrations of ATP: 15 μM and 5 μM, and the corresponding final concentration of Micro2: 0.1 mg/mL). To the reaction plate was added the mixed solution of ATP and the substrate at 1 μL/well. The plate was sealed with a plate-sealing film and centrifuged at 1000 rpm for 30 seconds. The reaction was carried out at room temperature for 60 minutes (AAK1). ADP-Glo (Promega, Cat #V9102) was transferred to the 384-well plate at 4 μL/well and centrifugation was carried out at 1000 rpm for 1 minute. The mixture was incubated at 25° C. for 40 minutes. A detection solution was transferred to the 384-well plate at 8 μL/well and centrifugation was carried out at 1000 rpm for 1 minute. The resulting mixture was incubated at 25° C. for 40 minutes. The RLU (Relative luminescence unit) signal values were read using a Biotek multilable microplate reader and the percent inhibition was calculated according to the following formula: [1−(LUMcompound−LUMpositive control)/(LUMnegative control−LUMpositive control)]×100. IC50 values were calculated using Graphpad 7.0 software using a four-parameter non-linear fit equation.

[1] = target: hERG potassium ion channel (Homo sapiens (Human), UniProt Q12809); assay: Test for hERG potassium ion channel (manual whole cell patch-clamp); assay type: cell-based; details: for IC50: CHO cells stably expressing hERG, read-out: IC50 (hERG potassium channel current); for inhibition at 40 µM: human, CHO cells stably expressing hERG potassium channel, read-out: Inhibition rate at the highest concentration tested (hERG potassium channel current)
Chain of hERG potassium ion channel (Q12809 whole entry): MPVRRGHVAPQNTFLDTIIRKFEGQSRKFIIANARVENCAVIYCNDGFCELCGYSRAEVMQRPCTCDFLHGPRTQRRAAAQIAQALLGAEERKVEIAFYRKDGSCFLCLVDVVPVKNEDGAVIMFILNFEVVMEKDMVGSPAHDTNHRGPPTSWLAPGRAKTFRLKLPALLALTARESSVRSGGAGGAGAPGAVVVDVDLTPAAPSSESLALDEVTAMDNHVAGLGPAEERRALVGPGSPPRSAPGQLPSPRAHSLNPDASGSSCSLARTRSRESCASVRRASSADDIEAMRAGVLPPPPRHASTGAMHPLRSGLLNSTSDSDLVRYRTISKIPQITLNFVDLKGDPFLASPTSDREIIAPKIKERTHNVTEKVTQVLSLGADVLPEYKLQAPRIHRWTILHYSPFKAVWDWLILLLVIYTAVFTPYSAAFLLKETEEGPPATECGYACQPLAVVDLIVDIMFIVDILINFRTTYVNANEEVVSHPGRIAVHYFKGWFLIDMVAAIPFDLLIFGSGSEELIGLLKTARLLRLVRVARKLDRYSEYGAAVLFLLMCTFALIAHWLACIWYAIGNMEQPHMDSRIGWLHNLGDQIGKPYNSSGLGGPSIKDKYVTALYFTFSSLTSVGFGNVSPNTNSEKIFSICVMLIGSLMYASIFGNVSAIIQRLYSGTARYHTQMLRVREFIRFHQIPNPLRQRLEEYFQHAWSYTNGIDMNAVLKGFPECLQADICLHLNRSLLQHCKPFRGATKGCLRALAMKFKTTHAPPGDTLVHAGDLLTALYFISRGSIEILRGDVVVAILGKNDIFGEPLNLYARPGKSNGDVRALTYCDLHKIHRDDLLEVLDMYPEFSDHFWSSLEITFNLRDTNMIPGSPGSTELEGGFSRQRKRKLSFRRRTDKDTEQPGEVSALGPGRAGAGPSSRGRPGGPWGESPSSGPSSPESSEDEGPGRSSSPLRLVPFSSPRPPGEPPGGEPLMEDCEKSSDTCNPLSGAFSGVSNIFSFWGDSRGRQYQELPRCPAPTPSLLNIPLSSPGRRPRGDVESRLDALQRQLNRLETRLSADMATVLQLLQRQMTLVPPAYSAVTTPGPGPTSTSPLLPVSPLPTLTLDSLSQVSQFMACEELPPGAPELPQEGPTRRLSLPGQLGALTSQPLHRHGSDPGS
Text: Experimental platform: electrophysiological manual patch-clamp system
Cell line: Chinese hamster ovary (CHO) cell lines stably expressing hERG potassium ion channel
Experimental method: In CHO (Chinese Hamster Ovary) cells stably expressing hERG potassium channel, whole cell patch-clamp technique was used to record hERG potassium channel current at room temperature. The glass microelectrode was made of a glass electrode blank (BF150-86-10, Sutter) by a puller. The tip resistance after filling the liquid in the electrode was about 2-5 MΩ. The glass microelectrode can be connected to the patch-clamp amplifier by inserting the glass microelectrode into an amplifier probe. The clamping voltage and data recording were controlled and recorded by the pClamp 10 software through a computer. The sampling frequency was 10 kHz, and the filtering frequency was 2 kHz. After the whole cell records were obtained, the cells were clamped at −80 mV, and the step voltage that induced the hERG potassium current (IhERG) was depolarized from −80 mV to +20 mV for 2 s, then repolarized to −50 mV, and returned to −80 mV after 1 s. This voltage stimulation was given every 10 s, and the administration process was started after the hERG potassium current was confirmed to be stable (at least 1 minute). The compound was administered for at least 1 minute at each test concentration, and at least 2 cells (n≥2) were tested at each concentration.
Data processing: Data analysis processing was carried out by using pClamp 10, GraphPad Prism 5 and Excel software. The inhibition degree of hERG potassium current (peak value of hERG tail current induced at −50 mV) at different compound concentrations was calculated by the following formula: […]
wherein, Inhibition % represents the percentage of inhibition of hERG potassium current by the compound, and I and Io represent the amplitude of hERG potassium current after and before dosing, respectively.
Compound IC50 was calculated using GraphPad Prism 5 software by fitting according to the following equation: […]
Among the equation, X represents the Log value of the tested concentration of the test sample, Y represents the inhibition percentage at the corresponding concentration, and Bottom and Top represent the minimum and maximum inhibition percentage, respectively.

[2] = Pharmacokinetic test in beagle dogs; assay type: in vivo; details: for AUC(0-t) / clearance / Vd: male, dog, plasma; for Vd: read-out: Vdss
Procedure: Experimental animals: male beagle dogs, about 8-11 kg, 6 beagle dogs/compound, purchased from Beijing Marshall Biotechnology Co., Ltd.
Experimental method: on the day of the experiment, 12 beagle dogs were randomly grouped according to their body weights. the animals were fasted with water available for 12 to 14 h one day before the administration, and were fed 4 h after the administration; and the administration was performed according to Table 2.
Before and after the administration, 1 ml of blood was taken from the jugular veins or limb veins, and placed in an EDTAK2 centrifuge tube. Centrifugation was performed at 5000 rpm at 4° C. for 10 min, and plasma was collected. Blood sampling time points for both the LX9211 intravenous administration group and intragastric administration group include: 0 min, 5 min, 15 min, 30 min, 1 h, 2 h, 4 h, 6 h, 8 h, 10 h, 12 h, and 24 h, and blood sampling time points for both the compound 19 intravenous administration group and intragastric administration group include: 0 min, 5 min, 15 min, 30 min, 1 h, 2 h, 4 h, 6 h, 8 h, 10 h, 12 h, 24 h, and 48 h. Before analysis and detection, all samples were stored at −80° C. The samples were analysed quantitatively by LC-MS/MS.

[3] = test system: SNL-induced mouse model of neuropathic pain; assay: Spinal nerve ligation (SNL)-induced mouse model of neuropathic pain, mechanical pain threshold (MPT); assay type: in vivo, C57BL/6J mice; details: for Time at which analgesic efficacy reached the peak after the administration / Effect on pain threshold (MPT) of mice after SNL modelling: 10 mg/kg intragastrically, single administration; for Effect on pain threshold (MPT) of mice after SNL modelling: 1, 3 and 6 hours after administration
Text: Male C57BL/6J mice (8 weeks old) purchased from Jinan Pengyue Experimental Animal Breeding Co., Ltd. were adaptively raised for one week and then the models were established. The specific establishment method comprises the following steps: • 1) disinfecting the surgical instrument and ligature; • 2) anesthetizing the mice with isoflurane and then placing the mice on the operating table in the prone position; • 3) shaving the fur near the hip bones of the mice and preparing the skin, and making an incision of about 2 cm along the spine; • 4) isolating the fascia along the spine, performing blunt dissection of the muscles, and exposing the transverse process of L5; • 5) carefully cutting the transverse process of L5 with forceps and exposing the L5 spinal nerve; • 6) carefully isolating the L5 nerve with a glass dissecting needle, and ligating the L5 nerve with a 5-0 ligature; and • 7) suturing the muscles and skin and disinfecting same with iodophor.
The mice that were unsuccessful in modeling were eliminated the next day after modeling (marker for successful modeling: mice with their hind paws curled up). After modeling, the mice were stroked for 3 to 5 minutes every day to ensure that the animals were familiar with the experimenter, and then the mice were placed on a metal pain measuring frame for 40 to 60 minutes of adaptation. After 3 days of acclimatization, Von Frey filaments (Aesthesio®; 0.16 g, 0.4 g, 0.6 g, 1.0 g, 1.4 g and 2.0 g) were used to test the pre-administration baseline values of the animals (Ascending testing approach). Each animal was tested twice and average values were taken, with intervals of at least 5 minutes. The animals were grouped according to the baseline values (10 animals per group). After the grouping, LX-9211 (1 and 10 mg/kg), compound 3 (1 and 10 mg/kg) or vehicle (40% PEG-400+10% ethanol+15% Tween 80+35% physiological saline) were administered intragastrically. The mice were tested for the mechanical pain threshold (MPT) at 1, 3 and 6 hours after the administration. Time-MPT curve was plotted using GraphPad 8.3.0, and statistical analysis was performed.

[4] = Mouse brain/blood ratio test; assay type: in vivo; details: ICR mice, i.g. (10 mg/kg); for Kp / AUC(0-t): male, mouse, po; for Kp: brain/plasma; for AUC(0-t): plasma, read-out: Plasma AUC0-t
Procedure: 5.1 Experimental animals: Male ICR mice, 20-25 g, 9 mice/compound. Purchased from Chengdu Ddossy Experimental Animals Co., Ltd.
5.2 Experimental design: on the day of the experiment, 18 ICR mice were randomly grouped according to their body weights. The animals were fasted with water available for 12 to 14 h one day before the administration, and were fed 4 h after the administration;
After intragastric administration, whole blood and brain tissue were collected at 0.5 h, 4 h and 24 h, and the whole blood was centrifuged to separate the plasma. The brain tissue was rinsed with cold physiological saline to remove the residual blood on the surface, drained out and then homogenized. Before analysis and detection, all samples were stored at −80° C. The samples were analyzed quantitatively by LC-MS/MS.

Chain of AAK1 (Q2M2I8 27-365): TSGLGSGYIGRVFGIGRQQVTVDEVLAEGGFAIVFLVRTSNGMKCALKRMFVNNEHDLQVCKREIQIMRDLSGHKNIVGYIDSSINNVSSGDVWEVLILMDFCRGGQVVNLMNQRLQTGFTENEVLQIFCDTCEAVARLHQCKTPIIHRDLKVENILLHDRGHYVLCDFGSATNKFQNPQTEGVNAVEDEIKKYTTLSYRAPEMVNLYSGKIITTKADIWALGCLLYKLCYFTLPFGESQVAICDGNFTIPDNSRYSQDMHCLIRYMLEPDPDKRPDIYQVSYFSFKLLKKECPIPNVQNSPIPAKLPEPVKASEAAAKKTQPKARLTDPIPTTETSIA

Row | IC50 (AAK1) | F ([2]; i.g. (3 mg/kg)) | AUC(0-t) ([2]; iv, i.v. (1 mg/kg)) | clearance ([2]; iv, i.v. (1 mg/kg)) | Vd ([2]; iv, i.v. (1 mg/kg)) | AUC(0-t) ([2]; po, i.g. (3 mg/kg)) | Brain tissue AUC0-t [4] | Kp [4] | AUC(0-t) [4] | Structure (SMILES) | IC50 [1] | inhibition at 40 µM [1] | Time at which analgesic efficacy reached the peak after the administration [3] | Effect on pain threshold (MPT) of mice after SNL modelling [3] | Analgesic efficacy compared with LX-9211 ([3]; 10 mg/kg, at 3 and 6 hours after the administration)
1 | 0.0377 µM | 113 ± 6.9% | 398 ± 94 ng·h/mL | 39.8 ± 10 mL/min/kg | 23.6 ± 3.8 L/kg | 1350 ± 83 ng·h/mL |  |  |  | COC(=O)Nc1cc(-c2ccc(OC[C@@](C)(N)CC(C)(C)F)c(C(F)F)n2)ccn1 [Compound 19, Methyl (S)-(5-((2-amino-4-fluoro-2,4-dimethylpentyl)oxy)-6-(difluoromethyl) [2,4′-bipyridin]-2′-yl)carbamate] | 24.1 µM | 68.9 ± 1.8% |  |  | 
2 |  | 22.2 ± 8.1% | 751 ± 204 ng·h/mL | 22.2 ± 7.7 mL/min/kg | 9.08 ± 1.4 L/kg | 500 ± 183 ng·h/mL | 110424 ng·h/g | 16.6 | 6640 ng·h/mL | CC(C)C[C@](C)(N)COc1ccc(-c2ccnc(C(F)F)c2)nc1C(F)F [LX-9211, reference compound] | 1.82 µM | 102 ± 4.08% | 1 h | effectively increased the pain threshold | 
3 | 0.0109 µM |  |  |  |  |  | 36853 ng·h/g | 64.5 | 572 ng·h/mL | C=C(C)C[C@](C)(N)COc1ccc(-c2ccnc(C(F)F)c2)nc1C(F)F [Compound 3, (S)-1-((2′,6-bis(difluoromethyl)-[2,4′-bipyridin]-5-yl)oxy)-2,4-dimethylpent-4-en-2-amine] | 8.75 µM | 86.6 ± 1.77% | 3 h | effectively increased the pain threshold | better efficacy than LX-9211
